Assay results reported in US20240409585A1, “MACROCYCLIC IMMUNOMODULATORS” (priority 2021, published 2024).
Bridge positions count the residues as written; N and C are the ends. Square brackets hold non-standard residues; d marks the D form. Peptide text beside a SMILES is read from it. * marks the point of attachment. ξ: configuration not given here. Phe(4-CONH2) = NC(=O)c1ccc(C[C@H](N)C(=O)O)cc1; Phe(4-COOH) = N[C@@H](Cc1ccc(C(=O)O)cc1)C(=O)O; dPhe(2,4-F2) = N[C@H](Cc1ccc(F)cc1F)C(=O)O; Bip = N[C@@H](Cc1ccc(-c2ccccc2)cc1)C(=O)O; Phe(3-Me) = Cc1cccc(C[C@H](N)C(=O)O)c1; Gly(cPent) = N[C@H](C(=O)O)C1CCCC1; Val(3-OH) = CC(C)(O)[C@H](N)C(=O)O; aIle = CC[C@@H](C)[C@H](N)C(=O)O; 3Pal = N[C@@H](Cc1cccnc1)C(=O)O; 4Pal = N[C@@H](Cc1ccncc1)C(=O)O; Cha = N[C@@H](CC1CCCCC1)C(=O)O; Cit = NC(=O)NCCC[C@H](N)C(=O)O; Thr(3ξ) = CC(O)[C@H](N)C(=O)O; Ahp(2) = CCCCC[C@H](N)C(=O)O; Carboxymethyl = O=C(O)C*; NMeA = CN[C@@H](C)C(=O)O; Nle = CCCC[C@H](N)C(=O)O; Dab = NCC[C@H](N)C(=O)O; Dap = NC[C@H](N)C(=O)O; ξV = CC(C)C(N)C(=O)O

target: T1, PE-labeled human PD-L1-Ig binding to Jurkat cell line over-expressing human PD-1 (Jurkat-PD-1) (Homo sapiens, UniProt Q15116); experiment: Jurkat-PD-1 Cell Binding High-Content Screening Assay (CBA): Method 1; conditions: Jurkat-hPD-1 cells, PE-labeled PD-L1-Ig 20 nM final; read-out: Jurkat HPDL1 PD1 IC50 (uM) (Method 1)
T1 construct: expressed in transfected cells; host or cells: Jurkat
T1 sequence (Q15116 25-288): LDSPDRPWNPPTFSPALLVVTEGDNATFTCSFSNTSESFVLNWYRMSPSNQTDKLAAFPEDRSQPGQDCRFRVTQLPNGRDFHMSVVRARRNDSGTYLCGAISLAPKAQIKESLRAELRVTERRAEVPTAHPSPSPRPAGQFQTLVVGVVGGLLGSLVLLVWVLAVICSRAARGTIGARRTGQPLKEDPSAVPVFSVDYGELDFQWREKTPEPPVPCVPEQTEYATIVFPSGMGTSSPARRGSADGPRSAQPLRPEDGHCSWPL
Experimental: Phycoerythrin (PE) was covalently linked to the Ig epitope tag of human PD-L1-Ig and fluorescently-labeled PD-L1-Ig was used for binding studies with a Jurkat cell line over-expressing human PD-1 (Jurkat-PD-1). Briefly, 8×10^3 Jurkat-hPD-1 cells were seeded into 384 well plates in 20 μl of DMEM supplemented with 10% fetal calf serum. 100 nl of compound was added to cells followed by incubation at 37° C. for 2 hours. Then, 5 μl of PE-labeled PD-L1-Ig (20 nM final), diluted in DMEM supplemented with 10% fetal calf serum. […] Data was collected and processed using a Cell Insight NXT High Content Imager and associated software.

Compared with `Cc1cccc(C[C@@H]2NC(=O)[C@H](CC(=O)O)NC(=O)[C@H](Cc3ccc(OCC(=O)O)cc3)NC(=O)[C@H]([C@@H](C)O)NC(=O)CSC[C@@H](C(N)=O)NC(=O)[C@H](CCC(=O)O)NC(=O)[C@H](C(C)C)NC(=O)[C@H](CC3CCCCC3)NC(=O)[C@H](CC(N)=O)NC(=O)[C@@H](CC(C)C)NC(=O)[C@H](C)N(C)C(=O)[C@H](Cc3ccc(OCC(=O)O)cc3)NC(=O)[C@H](Cc3ccc(-c4ccccc4)cc3)NC(=O)[C@H](Cc3ccc(OCC(=O)O)cc3)NC2=O)c1` [Compound 1679] ({CH2CO}-TY(Carboxymethyl)D[Phe(3-Me)]Y(Carboxymethyl)[Bip]Y(Carboxymethyl)[NMeA][dL]N[Cha]VEC-NH2; thioether N-14), `Cc1cccc(C[C@@H]2NC(=O)[C@H](CC(=O)O)NC(=O)[C@H](Cc3ccc(OCC(=O)O)cc3)NC(=O)[C@H](C(C)O)NC(=O)CSC[C@@H](C(N)=O)NC(=O)[C@H](CO)NC(=O)[C@H](C(C)(C)O)NC(=O)[C@H](CC3CCCCC3)NC(=O)[C@H](CCN)NC(=O)[C@@H](CC(C)C)NC(=O)[C@H](C)N(C)C(=O)[C@H](Cc3ccc(OCC(=O)O)cc3)NC(=O)[C@H](Cc3ccc(-c4ccccc4)cc3)NC(=O)[C@H](Cc3ccc(C(=O)O)cc3)NC2=O)c1` (stereo partly drawn) [Compound 2264] ({CH2CO}-[Thr(3ξ)]Y(Carboxymethyl)D[Phe(3-Me)][Phe(4-COOH)][Bip]Y(Carboxymethyl)[NMeA][dL][Dab][Cha][Val(3-OH)]SC-NH2; thioether N-14) is 2.6-fold lower in IC50: 0.23 µM for the first, 0.09 µM for the second. The second is the more potent here.

Compared with `CC[C@@H](C)[C@@H]1NC(=O)[C@H](Cc2ccc(-c3ccccc3)cc2)NC(=O)[C@H](C2CCCC2)NC(=O)[C@H](Cc2c[nH]c3ccccc23)NC(=O)[C@H](CC(=O)O)NC(=O)[C@H](Cc2ccc(C(=O)O)cc2)NC(=O)[C@H](Cc2ccc(OCC(=O)O)cc2)NC(=O)CSC[C@@H](C(=O)N[C@@H](CCCCN)C(N)=O)NC(=O)[C@H](CO)NC(=O)C(C(C)C)NC(=O)[C@H](CC(C)C)NC(=O)[C@H](CC(N)=O)NC(=O)[C@@H](CC(C)C)NC(=O)[C@H](C)N(C)C1=O` (stereo partly drawn) [Compound 2103] ({CH2CO}-Y(Carboxymethyl)[Phe(4-COOH)]DW[Gly(cPent)][Bip][aIle][NMeA][dL]NL[ξV]SCK-NH2; thioether N-14), `CC(C)C[C@@H]1NC(=O)[C@H](Cc2c[nH]c3ccccc23)NC(=O)[C@H](CC(=O)O)NC(=O)[C@H](Cc2ccc(C(=O)O)cc2)NC(=O)[C@H](Cc2ccc(OCC(=O)O)cc2)NC(=O)CSC[C@@H](C(=O)N[C@H](C)C(N)=O)NC(=O)[C@H](CO)NC(=O)[C@H](C(C)(C)O)NC(=O)[C@H](CC2CCCCC2)NC(=O)[C@H](CCN)NC(=O)[C@@H](CC(C)C)NC(=O)[C@H](C)N(C)C(=O)[C@H](C(C)(C)O)NC(=O)[C@H](Cc2ccc(-c3ccccc3)cc2)NC1=O` [Compound 1714] ({CH2CO}-Y(Carboxymethyl)[Phe(4-COOH)]DWL[Bip][Val(3-OH)][NMeA][dL][Dab][Cha][Val(3-OH)]SC[dA]-NH2; thioether N-14) is 2-fold lower in IC50: 0.04 µM for the first, 0.02 µM for the second.

Going from `CC(C)C[C@@H]1NC(=O)[C@H](Cc2c[nH]c3ccccc23)NC(=O)[C@H](CC(=O)O)NC(=O)[C@H](Cc2ccc(O)cc2)NC(=O)[C@H](Cc2ccccc2)NC(=O)CSC[C@@H](C(=O)N[C@@H](C)C(N)=O)NC(=O)[C@H]([C@@H](C)O)NC(=O)[C@H](CCCNC(=N)N)NC(=O)[C@H](CC(C)C)NC(=O)[C@H](CC(N)=O)NC(=O)[C@@H](C)NC(=O)[C@H](C)N(C)C(=O)[C@H](C(C)C)NC(=O)[C@H](Cc2ccc(-c3ccccc3)cc2)NC1=O` [Compound 1789] ({CH2CO}-FYDWL[Bip]V[NMeA][dA]NLRTCA-NH2; thioether N-14) to `CC(C)C[C@@H]1NC(=O)[C@H](CCCNC(=N)N)NC(=O)[C@@H](Cc2ccccc2)NC(=O)[C@H](C)N(C)C(=O)[C@H](CCCNC(=N)N)NC(=O)[C@H](Cc2ccc(-c3ccccc3)cc2)NC(=O)[C@H](C(C)C)NC(=O)[C@H](Cc2c[nH]c3ccccc23)NC(=O)[C@H](CC(=O)O)NC(=O)[C@H](Cc2ccc(O)cc2)NC(=O)[C@H](CC(N)=O)NC(=O)CSC[C@@H](C(=O)N[C@@H](C)C(N)=O)NC(=O)[C@H]([C@@H](C)O)NC(=O)[C@H](C(C)C)NC1=O` [Compound 1153] ({CH2CO}-NYDWV[Bip]R[NMeA][dF]RLVTCA-NH2; thioether N-14), the IC50 rises from 0.12 µM to 0.19 µM (1.6-fold). The first is the more potent here.

Going from `Cc1cccc(C[C@@H]2NC(=O)[C@H](CC(=O)O)NC(=O)[C@H](Cc3ccncc3)NC(=O)[C@H](Cc3ccc(OCC(=O)O)cc3)NC(=O)CSC[C@@H](C(N)=O)NC(=O)[C@H](CO)NC(=O)[C@H](C(C)C)NC(=O)[C@H](CC(C)C)NC(=O)[C@H](CC(N)=O)NC(=O)[C@@H](CC(C)C)NC(=O)[C@H](C)N(C)C(=O)[C@H](CCCNC(N)=O)NC(=O)[C@H](Cc3ccc(-c4ccccc4)cc3)NC(=O)[C@H](CC(C)C)NC2=O)c1` [Compound 1642] ({CH2CO}-Y(Carboxymethyl)[4Pal]D[Phe(3-Me)]L[Bip][Cit][NMeA][dL]NLVSC-NH2; thioether N-14) to `CC(=O)NCCCC[C@@H]1NC(=O)[C@H](C(C)C)NC(=O)[C@H](CC2CCCCC2)NC(=O)[C@H](CCC(=O)O)NC(=O)[C@@H](CC(C)C)NC(=O)[C@H](C)N(C)C(=O)[C@H](Cc2cnc[nH]2)NC(=O)[C@H](Cc2ccc(-c3ccccc3)cc2)NC(=O)[C@H](CC(C)C)NC(=O)[C@H](Cc2cccc(C)c2)NC(=O)[C@H](CC(=O)O)NC(=O)[C@H](Cc2ccc(OCC(=O)O)cc2)NC(=O)[C@H](Cc2ccc(OCC(=O)O)cc2)NC(=O)CSC[C@@H](C(=O)N[C@H](C)C(N)=O)NC1=O` [Compound 2124] ({CH2CO}-Y(Carboxymethyl)Y(Carboxymethyl)D[Phe(3-Me)]L[Bip]H[NMeA][dL]E[Cha]VK(Ac)C[dA]-NH2; thioether N-14), the IC50 falls from 0.18 µM to 0.04 µM (4.5-fold).

Going from `CC(C)C[C@@H]1NC(=O)[C@H](CCCNC(=N)N)NC(=O)[C@@H](Cc2cnc[nH]2)NC(=O)[C@H](C)N(C)C(=O)[C@H](CCCNC(=N)N)NC(=O)[C@H](Cc2ccc(-c3ccccc3)cc2)NC(=O)[C@H](C(C)C)NC(=O)[C@H](Cc2c[nH]c3ccccc23)NC(=O)[C@H](CC(=O)O)NC(=O)[C@H](Cc2ccc(O)cc2)NC(=O)[C@H](Cc2ccccc2)NC(=O)CSC[C@@H](C(=O)NCC(N)=O)NC(=O)[C@H](CO)NC(=O)[C@H](C(C)C)NC1=O` [Compound 1022] ({CH2CO}-FYDWV[Bip]R[NMeA][dH]RLVSCG-NH2; thioether N-14) to `CC(C)C[C@@H]1NC(=O)[C@H](CCCNC(=N)N)NC(=O)[C@@H](Cc2ccc(F)cc2F)NC(=O)[C@H](C)N(C)C(=O)[C@H](CCCNC(=N)N)NC(=O)[C@H](Cc2ccc(-c3ccccc3)cc2)NC(=O)[C@H](C(C)C)NC(=O)[C@H](Cc2c[nH]c3ccccc23)NC(=O)[C@H](CC(=O)O)NC(=O)[C@H](Cc2ccc(O)cc2)NC(=O)[C@H](Cc2ccccc2)NC(=O)CSC[C@@H](C(=O)N[C@@H](C)C(N)=O)NC(=O)[C@H]([C@@H](C)O)NC(=O)[C@H](C(C)C)NC1=O` [Compound 1073] ({CH2CO}-FYDWV[Bip]R[NMeA][dPhe(2,4-F2)]RLVTCA-NH2; thioether N-14), the IC50 falls from 0.64 µM to 0.13 µM (4.9-fold). The second is the more potent here.

First: Cc1cccc(C[C@@H]2NC(=O)[C@H](CC(=O)O)NC(=O)[C@H](Cc3ccc(OCC(=O)O)cc3)NC(=O)[C@H](CCN)NC(=O)CSC[C@@H](C(=O)N[C@@H](CO)C(N)=O)NC(=O)[C@H](CO)NC(=O)[C@H](C(C)(C)O)NC(=O)[C@H](CC3CCCCC3)NC(=O)[C@H](CCN)NC(=O)[C@@H](CC(C)C)NC(=O)[C@H](C)N(C)C(=O)[C@H](Cc3ccc(C(=O)O)cc3)NC(=O)[C@H](Cc3ccc(-c4ccccc4)cc3)NC(=O)[C@H](Cc3ccc(C(N)=O)cc3)NC2=O)c1 [Compound 2179] ({CH2CO}-[Dab]Y(Carboxymethyl)D[Phe(3-Me)][Phe(4-CONH2)][Bip][Phe(4-COOH)][NMeA][dL][Dab][Cha][Val(3-OH)]SCS-NH2; thioether N-14)
Second: CC(C)C[C@@H]1NC(=O)[C@H](CCCCN)NC(=O)[C@@H](CC(C)C)NC(=O)[C@H](C)N(C)C(=O)[C@H](CCCNC(=N)N)NC(=O)[C@H](Cc2ccc(-c3ccccc3)cc2)NC(=O)[C@H](C(C)C)NC(=O)[C@H](Cc2c[nH]c3ccccc23)NC(=O)[C@H](CC(=O)O)NC(=O)[C@H](Cc2ccc(O)cc2)NC(=O)[C@H](Cc2ccccc2)NC(=O)CSC[C@@H](C(=O)N[C@@H](CO)C(N)=O)NC(=O)[C@H]([C@@H](C)O)NC(=O)[C@H](C(C)C)NC1=O [Compound 1184] ({CH2CO}-FYDWV[Bip]R[NMeA][dL]KLVTCS-NH2; thioether N-14)
The IC50 of the first is 2.2-fold lower: 0.06 µM for the first, 0.13 µM for the second. The first is the more potent here.

Compared with `CC(C)C[C@@H]1NC(=O)[C@H](CCCNC(=N)N)NC(=O)[C@@H](CC(C)C)NC(=O)[C@H](C)N(C)C(=O)[C@H](CCCNC(=N)N)NC(=O)[C@H](Cc2ccc(-c3ccccc3)cc2)NC(=O)[C@H](C(C)C)NC(=O)[C@H](Cc2c[nH]c3ccccc23)NC(=O)[C@H](CC(=O)O)NC(=O)[C@H](Cc2ccc(O)cc2)NC(=O)[C@H](Cc2cccnc2)NC(=O)CSC[C@@H](C(=O)N[C@@H](C)C(N)=O)NC(=O)[C@H]([C@@H](C)O)NC(=O)[C@H](C(C)C)NC1=O` [Compound 1049] ({CH2CO}-[3Pal]YDWV[Bip]R[NMeA][dL]RLVTCA-NH2; thioether N-14), `CCCC[C@@H]1NC(=O)[C@H](CCCNC(=N)N)NC(=O)[C@@H](CC(C)C)NC(=O)[C@H](C)N(C)C(=O)[C@H]([C@@H](C)CC)NC(=O)[C@H](Cc2ccc(-c3ccccc3)cc2)NC(=O)[C@H](C(C)C)NC(=O)[C@H](Cc2c[nH]c3ccccc23)NC(=O)[C@H](CC(=O)O)NC(=O)[C@H](Cc2ccc(O)cc2)NC(=O)[C@H](CN)NC(=O)CSC[C@@H](C(=O)N[C@@H](C)C(N)=O)NC(=O)[C@H]([C@@H](C)O)NC(=O)[C@H](C(C)C)NC1=O` [Compound 1496] ({CH2CO}-[Dap]YDWV[Bip]I[NMeA][dL]R[Nle]VTCA-NH2; thioether N-14) is 18-fold higher in IC50: 0.01 µM for the first, 0.18 µM for the second. The first is the more potent here.

Molecule `CCCCC[C@@H]1NC(=O)[C@H](Cc2ccc(-c3ccccc3)cc2)NC(=O)[C@H](C(C)C)NC(=O)[C@H](Cc2c[nH]c3ccccc23)NC(=O)[C@H](CC(=O)O)NC(=O)[C@H](Cc2ccc(O)cc2)NC(=O)[C@H](CN)NC(=O)CSC[C@@H](C(=O)N[C@@H](C)C(N)=O)NC(=O)[C@H](C(C)O)NC(=O)[C@H](C(C)C)NC(=O)[C@H](CC(C)C)NC(=O)[C@H](CCN)NC(=O)[C@@H](CC(C)C)NC(=O)[C@H](C)N(C)C1=O` (stereo partly drawn) [Compound 2082] ({CH2CO}-[Dap]YDWV[Bip][Ahp(2)][NMeA][dL][Dab]LV[Thr(3ξ)]CA-NH2; thioether N-14) has an IC50 of 0.07 µM.
